Values quoted from earlier work as cited in publication PMC11767697, “Radiocobalt-Labeling of a Polypyridylamine Chelate Conjugated to GE11 for EGFR-Targeted Theranostics” (Molecules, 2025).

Details: Co(II) complex
Description: The promising therapeutic properties of the AEE, ^58mCo (T1/2 = 9.1 h), have been theoretically predicted and confirmed by in vitro and in vivo experiments using PSMA and octreotide conjugates of DOTA [[2],[11 ...

| SMILES | stability (binding) constant Log(β) (comparable conditions) | stability constant Log(β) |
| --- | --- | --- |
| O=C([O-])CN(CCN(CC(=O)[O-])CC(=O)[O-])CC(=O)[O-].[Co+2] [[Co^II(EDTA)]^2-] | 16.1 |  |
| [Co+2].c1ccc(CN(CCN(Cc2ccccn2)Cc2ccccn2)Cc2ccccn2)nc1 [[Co^II(TPEN)]^2+] |  | 16.6 |
